Experimental findings from ChEMBL document CHEMBL5209897, “Affinity Phenotypic Cellular Literature for EUbOPEN Chemogenomics Library wave 3” (2023) are described below.

As a reminder, the IC50 is the concentration at which inhibition is half-maximal. What is called EC50 is the concentration that produces a half-maximal response. A higher EC50 goes with a less potent agent. The IC90 is the point of the concentration-response curve where the effect stands at 90%. One may read the GI50 as the concentration at which growth is held to half of that of the control. Higher therefore signals lower sensitivity of the cells.

One test addresses Integrin alpha-L (Homo sapiens, UniProt P20701). The format is functional, cell-based. On the set-up: mode of action Inhibitor, recommended concentration 100 nM.
For test [1], the target named is Macrophage migration inhibitory factor (Homo sapiens) (UniProt P14174). Nature of the test: Affinity Phenotypic Cellular interaction (Cell viability WST-8 assay (measuring inhibition of apoptosis)) EUB0001135a MIF. On the set-up: recommended concentration 1 uM. The format is functional. The note with it: Affinity Phenotypic Cellular Source Knowledge 21168764, https://www.sgc-ffm.uni-frankfurt.de/#!specificprobeoverview/BTZO-1.

The target in test [2] is Histone-lysine N-methyltransferase EHMT1 (Homo sapiens, UniProt Q9H9B1). Nature of the test: Affinity Phenotypic Cellular interaction (In-Cell Western assay (H3K9Me2 antibody immunofluorescence in PC3 cells)) EUB0000212b EHMT1/GLP. The format is cell-based. On the set-up: mode of action Inhibitor, recommended concentration 1 uM.
For test [3], the target named is Bromodomain adjacent to zinc finger domain protein 2A (Homo sapiens, UniProt Q9UIF9). Nature of the test: Affinity Phenotypic Cellular interaction (FRAP assay (displacement of BAZ2A/B from chromatin in SAHA-treated human U2OS cells, transfected with GFP-BAZ2A fusion construct)) EUB0000267b BAZ2A. On the set-up: mode of action Negative control for GSK2801, recommended concentration 1 uM.
Chain of Bromodomain adjacent to zinc finger domain protein 2A (Q9UIF9 whole entry, the tested form may be a part): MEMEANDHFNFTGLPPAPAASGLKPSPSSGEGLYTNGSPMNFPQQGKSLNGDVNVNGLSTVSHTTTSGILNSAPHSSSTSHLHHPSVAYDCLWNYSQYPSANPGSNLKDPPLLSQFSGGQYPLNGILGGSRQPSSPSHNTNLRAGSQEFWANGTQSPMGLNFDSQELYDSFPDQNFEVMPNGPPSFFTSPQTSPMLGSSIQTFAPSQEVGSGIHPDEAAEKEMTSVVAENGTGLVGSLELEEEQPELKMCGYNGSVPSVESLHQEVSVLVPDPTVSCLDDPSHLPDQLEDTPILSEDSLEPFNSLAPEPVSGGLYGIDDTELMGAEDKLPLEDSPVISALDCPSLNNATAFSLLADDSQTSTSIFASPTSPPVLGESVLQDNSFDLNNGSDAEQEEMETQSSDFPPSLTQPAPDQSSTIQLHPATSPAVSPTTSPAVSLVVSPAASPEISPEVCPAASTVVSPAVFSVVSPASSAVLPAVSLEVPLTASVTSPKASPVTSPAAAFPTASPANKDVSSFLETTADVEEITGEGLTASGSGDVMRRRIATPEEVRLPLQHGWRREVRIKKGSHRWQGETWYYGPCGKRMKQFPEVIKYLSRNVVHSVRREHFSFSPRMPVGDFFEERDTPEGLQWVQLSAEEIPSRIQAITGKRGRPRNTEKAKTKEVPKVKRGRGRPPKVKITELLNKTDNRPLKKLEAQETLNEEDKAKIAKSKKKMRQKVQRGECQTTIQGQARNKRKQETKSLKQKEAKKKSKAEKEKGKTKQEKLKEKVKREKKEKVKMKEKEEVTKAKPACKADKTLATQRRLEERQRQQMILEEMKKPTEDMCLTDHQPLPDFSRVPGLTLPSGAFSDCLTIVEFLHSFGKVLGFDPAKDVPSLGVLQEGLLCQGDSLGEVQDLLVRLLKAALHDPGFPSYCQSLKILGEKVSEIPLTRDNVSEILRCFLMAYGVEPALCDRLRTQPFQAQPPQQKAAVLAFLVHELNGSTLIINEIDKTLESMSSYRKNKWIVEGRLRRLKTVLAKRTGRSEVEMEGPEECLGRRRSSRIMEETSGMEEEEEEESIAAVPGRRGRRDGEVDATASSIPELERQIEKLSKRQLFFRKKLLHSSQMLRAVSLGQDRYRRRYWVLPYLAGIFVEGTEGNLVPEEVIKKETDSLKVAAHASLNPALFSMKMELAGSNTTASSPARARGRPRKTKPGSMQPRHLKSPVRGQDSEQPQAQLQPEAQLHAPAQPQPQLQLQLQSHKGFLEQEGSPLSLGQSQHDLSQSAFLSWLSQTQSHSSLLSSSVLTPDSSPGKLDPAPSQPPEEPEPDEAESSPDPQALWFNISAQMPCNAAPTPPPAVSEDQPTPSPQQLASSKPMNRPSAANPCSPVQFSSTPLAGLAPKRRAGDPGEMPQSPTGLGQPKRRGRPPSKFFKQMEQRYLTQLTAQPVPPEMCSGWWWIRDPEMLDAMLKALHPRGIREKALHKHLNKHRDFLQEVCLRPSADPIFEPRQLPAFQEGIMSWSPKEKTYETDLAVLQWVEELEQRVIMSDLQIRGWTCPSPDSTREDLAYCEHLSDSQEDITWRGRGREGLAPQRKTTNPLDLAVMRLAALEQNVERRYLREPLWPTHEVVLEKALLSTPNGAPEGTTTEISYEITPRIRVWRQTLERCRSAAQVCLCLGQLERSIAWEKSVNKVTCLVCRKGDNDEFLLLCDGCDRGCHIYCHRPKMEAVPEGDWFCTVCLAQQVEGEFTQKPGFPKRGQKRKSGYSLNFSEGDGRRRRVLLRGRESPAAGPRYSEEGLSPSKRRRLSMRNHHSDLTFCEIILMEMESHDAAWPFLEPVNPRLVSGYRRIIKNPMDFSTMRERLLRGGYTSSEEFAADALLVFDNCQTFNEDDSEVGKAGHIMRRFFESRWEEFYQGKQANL

A short description of test [4]: Affinity Phenotypic Cellular interaction (CellTiter-Glo assay (Promega, cell proliferation assay in LNCaP cell line)) EUB0000215b EZH2. On the technique in general: ATP-based viability assays read luminescence as a measure of living cells.
In test [5] the target is C-C chemokine receptor type 1 (Homo sapiens, UniProt P32246). Nature of the test: Affinity Phenotypic Cellular interaction (Functional cellular assay (measuring calcium flux in response to MIP-1a in CCR1-transfected cells)) EUB0000343a CCR1. The format is cell-based. Further details: mode of action Negative control for BI-639667, recommended concentration 100 nM. On the technique in general: A change in cytosolic calcium serves as a functional read-out for many receptors and channels.
Chain of C-C chemokine receptor type 1 (P32246 whole entry): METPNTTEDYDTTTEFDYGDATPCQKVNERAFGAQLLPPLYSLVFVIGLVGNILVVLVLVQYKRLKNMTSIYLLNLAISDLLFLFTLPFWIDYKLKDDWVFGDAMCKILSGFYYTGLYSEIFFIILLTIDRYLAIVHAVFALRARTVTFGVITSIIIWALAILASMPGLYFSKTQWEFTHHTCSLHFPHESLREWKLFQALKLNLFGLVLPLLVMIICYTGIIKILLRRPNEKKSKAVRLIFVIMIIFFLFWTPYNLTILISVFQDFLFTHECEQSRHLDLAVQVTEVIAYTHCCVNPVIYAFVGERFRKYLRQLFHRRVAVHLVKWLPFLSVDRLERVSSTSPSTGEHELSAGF

For test [6], the target named is Hepatocyte growth factor receptor (Homo sapiens) (UniProt P08581). Nature of the test: Affinity Phenotypic Cellular interaction (Cell proliferation assay (in Hs746T cells)) EUB0000293b MET. The format is functional, cell-based. Further details: recommended concentration 1 uM. The note with it: Affinity Phenotypic Cellular Source Knowledge https://www.sgc-ffm.uni-frankfurt.de/#!specificprobeoverview/BAY-474.

Another test addresses Aurora kinase B (Homo sapiens, UniProt Q96GD4). Nature of the test: Affinity Phenotypic Cellular interaction (ELISA (histone H3 serine phosphorylation in A549 cells)) EUB0000674a AURKB. The class given is cell-based. On the set-up: mode of action Inhibitor, recommended concentration 1 uM.
The target of a further test is Aurora kinase C (Homo sapiens, UniProt Q9UQB9). Nature of the test: Affinity Phenotypic Cellular interaction (ELISA (histone H3 serine phosphorylation in A549 cells)) EUB0000674a AURKC. The class given is cell-based. Further details: mode of action Inhibitor, recommended concentration 1 uM. In general terms: In an ELISA, binding on a coated surface is turned into a signal by an enzyme label.
Chain of Aurora kinase C (Q9UQB9 whole entry): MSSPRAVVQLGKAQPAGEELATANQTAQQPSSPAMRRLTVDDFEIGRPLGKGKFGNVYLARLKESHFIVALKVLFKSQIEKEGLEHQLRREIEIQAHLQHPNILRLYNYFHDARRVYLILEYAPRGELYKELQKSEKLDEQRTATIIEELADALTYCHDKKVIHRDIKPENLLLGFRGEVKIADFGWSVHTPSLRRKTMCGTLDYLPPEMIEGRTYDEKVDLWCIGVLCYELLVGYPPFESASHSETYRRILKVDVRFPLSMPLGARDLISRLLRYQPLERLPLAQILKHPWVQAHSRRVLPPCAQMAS

In test [7] the target is Rho-associated protein kinase 2 (Homo sapiens, UniProt O75116). Nature of the test: Affinity Phenotypic Cellular interaction (Western Blot (phosphorylation of MYPT at Thr850 in HEK293 cells)) EUB0000134b ROCK2. Further details: mode of action Inhibitor, recommended concentration 1 uM. The format is cell-based.
Chain of Rho-associated protein kinase 2 (O75116 whole entry): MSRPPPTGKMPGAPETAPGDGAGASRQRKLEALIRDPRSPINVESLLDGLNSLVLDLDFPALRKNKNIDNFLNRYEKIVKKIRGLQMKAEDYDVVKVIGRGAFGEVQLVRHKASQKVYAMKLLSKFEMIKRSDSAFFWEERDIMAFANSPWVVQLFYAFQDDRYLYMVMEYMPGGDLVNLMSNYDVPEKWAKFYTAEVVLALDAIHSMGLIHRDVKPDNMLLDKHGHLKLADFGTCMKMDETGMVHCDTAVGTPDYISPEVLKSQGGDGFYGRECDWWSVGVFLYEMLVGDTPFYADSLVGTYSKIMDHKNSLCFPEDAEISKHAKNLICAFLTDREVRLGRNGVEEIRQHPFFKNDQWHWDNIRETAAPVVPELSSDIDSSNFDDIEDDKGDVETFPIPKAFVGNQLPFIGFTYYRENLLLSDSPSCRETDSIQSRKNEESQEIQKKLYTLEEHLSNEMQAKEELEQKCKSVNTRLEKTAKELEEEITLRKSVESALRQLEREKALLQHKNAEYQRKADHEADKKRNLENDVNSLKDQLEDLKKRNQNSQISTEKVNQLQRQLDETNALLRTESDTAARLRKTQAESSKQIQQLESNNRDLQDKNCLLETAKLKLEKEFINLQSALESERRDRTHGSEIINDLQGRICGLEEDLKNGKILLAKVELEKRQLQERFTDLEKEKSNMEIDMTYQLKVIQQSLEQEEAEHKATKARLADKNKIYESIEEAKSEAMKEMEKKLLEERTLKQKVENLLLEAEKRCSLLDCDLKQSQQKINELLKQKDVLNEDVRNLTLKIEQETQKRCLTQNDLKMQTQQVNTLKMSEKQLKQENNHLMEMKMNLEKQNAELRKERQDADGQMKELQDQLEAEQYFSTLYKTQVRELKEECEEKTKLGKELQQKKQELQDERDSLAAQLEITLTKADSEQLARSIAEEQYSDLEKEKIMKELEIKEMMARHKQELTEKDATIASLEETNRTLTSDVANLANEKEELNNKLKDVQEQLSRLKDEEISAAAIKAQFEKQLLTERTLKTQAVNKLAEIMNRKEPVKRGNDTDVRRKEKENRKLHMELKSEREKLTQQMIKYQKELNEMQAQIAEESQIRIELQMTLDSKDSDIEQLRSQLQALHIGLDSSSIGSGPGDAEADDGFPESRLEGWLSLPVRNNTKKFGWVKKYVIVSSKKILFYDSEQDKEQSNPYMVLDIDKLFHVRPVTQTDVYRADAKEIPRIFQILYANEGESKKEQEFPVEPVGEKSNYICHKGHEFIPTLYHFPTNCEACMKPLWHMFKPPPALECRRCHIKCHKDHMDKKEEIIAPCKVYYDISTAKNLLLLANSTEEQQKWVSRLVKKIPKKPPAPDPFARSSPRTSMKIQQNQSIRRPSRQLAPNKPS
Test [8] concerns the target Rho-associated protein kinase 1 (Homo sapiens, UniProt Q13464). Nature of the test: Affinity Phenotypic Cellular interaction (Western Blot (phosphorylation of MYPT at Thr850 in HEK293 cells)) EUB0000134b ROCK1. The format is cell-based. On the set-up: mode of action Inhibitor, recommended concentration 1 uM.
The target of test [9] is Histone-lysine N-methyltransferase SMYD3 (Homo sapiens, UniProt Q9H7B4). Nature of the test: Affinity Phenotypic Cellular interaction (Immunoblot (inhibition of MAP3K2 methylation in HeLa cells)) EUB0000221b SMYD3. On the set-up: mode of action Peptide-competitive inhibitor, recommended concentration 1 uM. The class given is cell-based.
Test [10] addresses Serine/threonine-protein kinase 4 (Homo sapiens, UniProt Q13043). Nature of the test: Affinity Phenotypic Cellular interaction (Immunoblotting (phosphorylation of endogenous MOB1; LATS1/2; and YAP in human liver carcinoma (HepG2) cells)) EUB0000178b STK4. Further details: mode of action Inhibitor, recommended concentration 100 nM.
The target in test [11] is Serine/threonine-protein kinase 3 (Homo sapiens, UniProt Q13188).
Test [12] deals with Histone acetyltransferase p300 (Homo sapiens, UniProt Q09472). Nature of the test: Affinity Phenotypic Cellular interaction (Inhibition of H3K27Ac (DU-145 cells)) EUB0000326a EP300.
Another test concerns the target CREB-binding protein (Homo sapiens, UniProt Q92793). Nature of the test: Affinity Phenotypic Cellular interaction (Inhibition of H3K27Ac (DU-145 cells)) EUB0000326a CREBBP.
Test [13] has as its target Phosphatidylinositol 4,5-bisphosphate 3-kinase catalytic subunit delta isoform (Homo sapiens) (UniProt O00329). The note with it: Affinity Phenotypic Cellular Source Knowledge https://doi.org/10.1093/jnci/djj133.
The target of test [14] is Phosphatidylinositol 4,5-bisphosphate 3-kinase catalytic subunit alpha isoform (Homo sapiens) (UniProt P42336). The note with it: Affinity Phenotypic Cellular Source Knowledge https://doi.org/10.1093/jnci/djj133.
Test [15] has as its target Phosphatidylinositol 4,5-bisphosphate 3-kinase catalytic subunit beta isoform (Homo sapiens, UniProt P42338). The settings on record: Affinity Phenotypic Cellular Source Knowledge https://doi.org/10.1093/jnci/djj133.
Test [16] addresses Phosphatidylinositol 4,5-bisphosphate 3-kinase catalytic subunit gamma isoform (Homo sapiens, UniProt P48736). The note with it: Affinity Phenotypic Cellular Source Knowledge https://doi.org/10.1093/jnci/djj133.
The target in test [17] is MAP kinase-activated protein kinase 3 (Homo sapiens, UniProt Q16644). Nature of the test: Affinity Phenotypic Cellular interaction (Cell-based TNFa assay (MesoScale Discovery; inhibition of LPS stimulated TNFa production in human U937 cells)) EUB0000056c MAPKAPK3. The format is functional. On the set-up: mode of action Inhibitor, recommended concentration 1 uM.
Test [18] deals with MAP kinase-activated protein kinase 2 (Homo sapiens, UniProt P49137). Nature of the test: Affinity Phenotypic Cellular interaction (Cell-based TNFa assay (MesoScale Discovery; inhibition of LPS stimulated TNFa production in human U937 cells)) EUB0000056c MAPKAPK2. The format is functional. Further details: mode of action Inhibitor, recommended concentration 1 uM.
The target of test [19] is MAP kinase-activated protein kinase 5 (Homo sapiens, UniProt Q8IW41). Nature of the test: Affinity Phenotypic Cellular interaction (Cell-based TNFa assay (MesoScale Discovery; inhibition of LPS stimulated TNFa production in human U937 cells)) EUB0000056c MAPKAPK5. Further details: mode of action Inhibitor, recommended concentration 1 uM. The format is functional.

Chain of Phosphatidylinositol 4,5-bisphosphate 3-kinase catalytic subunit gamma isoform (P48736 whole entry, looked up, canonical isoform): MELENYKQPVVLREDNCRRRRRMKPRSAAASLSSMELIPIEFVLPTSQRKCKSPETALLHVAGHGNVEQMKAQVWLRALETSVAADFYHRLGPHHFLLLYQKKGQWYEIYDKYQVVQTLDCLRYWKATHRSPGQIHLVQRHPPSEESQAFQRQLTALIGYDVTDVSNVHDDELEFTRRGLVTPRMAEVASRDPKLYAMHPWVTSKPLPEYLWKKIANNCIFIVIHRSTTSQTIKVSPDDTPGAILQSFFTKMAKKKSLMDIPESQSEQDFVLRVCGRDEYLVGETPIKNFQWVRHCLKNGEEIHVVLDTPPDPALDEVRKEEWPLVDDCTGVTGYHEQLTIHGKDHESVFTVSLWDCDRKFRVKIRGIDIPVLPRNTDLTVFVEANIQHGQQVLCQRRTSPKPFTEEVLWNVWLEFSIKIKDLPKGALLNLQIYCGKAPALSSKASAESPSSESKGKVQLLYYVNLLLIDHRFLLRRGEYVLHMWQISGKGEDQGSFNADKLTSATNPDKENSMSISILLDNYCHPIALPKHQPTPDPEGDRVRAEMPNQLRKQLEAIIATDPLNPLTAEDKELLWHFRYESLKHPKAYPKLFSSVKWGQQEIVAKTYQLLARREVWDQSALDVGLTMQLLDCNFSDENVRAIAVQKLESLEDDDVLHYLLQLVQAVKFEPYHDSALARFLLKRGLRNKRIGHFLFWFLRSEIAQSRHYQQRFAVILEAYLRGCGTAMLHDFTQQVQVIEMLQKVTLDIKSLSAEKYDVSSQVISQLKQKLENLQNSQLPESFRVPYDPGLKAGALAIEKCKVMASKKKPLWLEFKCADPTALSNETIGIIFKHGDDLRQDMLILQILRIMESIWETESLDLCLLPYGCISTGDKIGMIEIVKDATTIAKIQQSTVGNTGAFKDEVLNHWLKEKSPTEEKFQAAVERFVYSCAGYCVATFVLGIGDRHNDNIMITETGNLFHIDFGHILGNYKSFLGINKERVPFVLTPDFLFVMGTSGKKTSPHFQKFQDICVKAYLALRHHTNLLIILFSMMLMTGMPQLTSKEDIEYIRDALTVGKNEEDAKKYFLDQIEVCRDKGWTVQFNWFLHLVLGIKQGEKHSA

`C[C@H](NC(=O)c1cnc2n1[C@](C)(Cc1ccc(C#N)cc1)C(=O)N2c1cc(Cl)c(F)c(Cl)c1)C(=O)NC1(c2ccccn2)CC1` [BI 1950]: the IC50 against Integrin alpha-L came out at 3 nM. In [1], `O=C1NC(c2ccccn2)Sc2ccccc21` (stereo not drawn) returned an MEC1.5 above 1000 nM.

Regarding `COc1cc2c(cc1OCCCN1CCCC1)N=C(N)C21CCC1`, the EC50 in [2] is below 3000 nM. Consider `CCCOc1ccn2c(C(C)=O)cc(-c3cccc(OC)c3)c2c1`, for which the IC50 in test [3] was above 100000 nM. Regarding `CCCc1cc(C)[nH]c(=O)c1CNC(=O)c1cc(-c2ccnc(N3CCN(C)CC3)c2)cc2c1cnn2C(C)C`, half-maximal inhibition in test [4] (IC50) was put at 2900 nM. Take `CS(=O)(=O)NCC[C@H](NC(=O)c1cncc2c1cnn2-c1ccc(F)cc1)c1ccnc(S(C)(=O)=O)c1` [BI 9307]: in test [5], the IC50 was above 3000 nM. `CC1=C(C#N)C(c2ccc3[nH]nc(C)c3c2)C(C#N)=C(C)N1`: it took 56 nM to reach the 90% level in test [6] (IC90).

On to `CCn1cc(-c2ccnc3[nH]c(-c4cccc(CN(C)C)c4)cc23)c(-c2ccc(NC(=O)N(C)C)cc2)n1` [GSK-1070916], for which the EC50 on Aurora kinase B and on Aurora kinase C was 46 nM each time. For `CC1=C(C(=O)Nc2cc3cn[nH]c3cc2F)C(c2ccc(C(F)(F)F)cc2)CC(=O)N1` (stereo not drawn), the IC50 in test [7] and in test [8] was below 10000 nM in each case. Take `C[C@H]1CC(=O)Nc2cc(C(=O)NCCC3CC3)ccc2N1C(=O)N1CC2CC2C1` (stereo partly drawn): the IC50 in [9] worked out at 183 nM. For the compound `CN1C(=O)c2sccc2N(C)c2nc(Nc3ccc(S(N)(=O)=O)cc3)ncc21`, the EC50 in test [10] and in [11] was above 100 nM each time. For `CNC(=O)Nc1ccc2c(c1)[C@@]1(CC2)OC(=O)N(CC(=O)N(Cc2ccc(F)cc2)[C@@H](C)C(F)(F)F)C1=O` [A-486], the IC50 (in test [12]; on CREB-binding protein) was above 10000 nM in each case.

With `FC(F)c1nc2ccccc2n1-c1nc(N2CCOCC2)nc(N2CCOCC2)n1`, the GI50 in test [13], in test [14], in test [15] and in test [16] was 28 nM throughout.

For the compound `Cc1ccc(-c2ccc3c(ccc4sc5c(c43)NC[C@@H](C)NC5=O)n2)cn1`, the IC50 in [17], in [18] and in test [19] was 159 nM in each case.
